Here are results for 42 compounds from patent US8513232B2, “Substituted spirocyclic piperidine derivatives as histamine-3 (H3) receptor ligands” (Cephalon, Inc., priority 2008, dated 2013).

For data set [1], the target named is T1, rat histamine H3 receptor (Rattus norvegicus, UniProt Q9QYN8).
T1 construct: encoding the entire 445-amino-acid rat histamine H3 receptor; expressed in transfected cells; membrane preparation
The experiment in a line: Rat H3 radioligand binding ([3H]-N-alpha-methylhistamine, SPA). The settings on record: rat H3 binding, Table D; read-out: Rat H3 Ki. An outline of the steps: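 Membranes from CHO-A3 cells stably expressing full-length rat H3 receptor (10 μg protein/well) incubated 4 h at room temperature, protected from light, with ~1 nM [3H]-N-alpha-methylhistamine and compound (0.01 nM-30 μM) in 50 mM Tris HCl pH 7.4, 5 mM MgCl2, 0.1% BSA. Binding read by SPA; 10 μM clobenpropit defined non-specific binding.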

The target of data set [2] is T2, human H3 receptor (Homo sapiens, UniProt Q9Y5N1).
T2 construct: expressed in transfected cells
T2 sequence (Q9Y5N1 whole entry): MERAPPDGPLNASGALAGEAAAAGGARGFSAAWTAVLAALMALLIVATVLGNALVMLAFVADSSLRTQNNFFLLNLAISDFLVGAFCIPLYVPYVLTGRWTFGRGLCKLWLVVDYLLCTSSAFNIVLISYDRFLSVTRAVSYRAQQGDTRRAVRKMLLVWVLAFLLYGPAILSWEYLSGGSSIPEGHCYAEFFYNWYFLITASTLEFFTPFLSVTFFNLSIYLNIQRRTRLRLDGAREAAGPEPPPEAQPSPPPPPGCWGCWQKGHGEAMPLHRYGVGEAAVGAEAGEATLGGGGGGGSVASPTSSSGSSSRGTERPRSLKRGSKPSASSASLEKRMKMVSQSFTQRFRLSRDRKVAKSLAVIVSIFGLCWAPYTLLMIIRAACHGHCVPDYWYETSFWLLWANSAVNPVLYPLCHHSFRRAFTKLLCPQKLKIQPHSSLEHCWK
The experiment in a line: Human H3 radioligand binding ([3H]-N-alpha-methylhistamine, SPA). The following applies: human H3 binding, Table D; read-out: Human H3 Ki. An outline of the steps:
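SPA competition binding on membranes from CHO cells stably expressing human H3 receptor (10 μg protein/well) with ~1 nM [3H]-N-alpha-methylhistamine and compound at 0.01 nM-30 μM. Incubation 4 h at room temperature in 50 mM Tris-HCl pH 7.4, 5 mM MgCl2, 0.1% BSA; non-specific binding defined with 10 μM clobenpropit.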

One may read the Ki as the equilibrium dissociation constant of an inhibitor or competing ligand from its target. A word on the melting point: it is the temperature, or range, at which the solid turns liquid.

T1 sequence (Q9QYN8 whole entry): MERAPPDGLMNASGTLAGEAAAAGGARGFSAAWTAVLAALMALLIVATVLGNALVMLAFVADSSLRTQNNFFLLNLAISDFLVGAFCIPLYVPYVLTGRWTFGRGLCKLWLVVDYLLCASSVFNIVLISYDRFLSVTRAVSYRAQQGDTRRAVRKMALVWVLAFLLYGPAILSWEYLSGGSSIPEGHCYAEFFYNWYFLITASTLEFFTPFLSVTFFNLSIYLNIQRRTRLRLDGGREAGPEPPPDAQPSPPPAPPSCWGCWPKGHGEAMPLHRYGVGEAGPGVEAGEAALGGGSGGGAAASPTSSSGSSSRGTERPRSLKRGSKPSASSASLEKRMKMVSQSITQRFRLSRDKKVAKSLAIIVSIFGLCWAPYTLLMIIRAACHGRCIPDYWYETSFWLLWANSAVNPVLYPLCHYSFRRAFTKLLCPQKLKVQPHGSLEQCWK

Compound `Cn1cc(-c2ccc3c(c2)COC2(CCN(C4CCC4)CC2)O3)ccc1=O` [Example 659] registered a melting point of 170 to 173 °C. Moreover, in data set [1], the inhibitory constant (Ki) is below 200 nM. The inhibitory constant (Ki) in data set [2] was below 200 nM.

Compound `O=C(CCc1ccc2c(c1)COC1(CCN(C3CCC3)CC1)O2)N1CCOCC1` [Example 660] returned a melting point of 71 to 73 °C. The inhibitory constant (Ki) in data set [1] is below 200 nM. Moreover, the inhibitory constant (Ki) in data set [2] is below 200 nM.

The compound `CCS(=O)(=O)c1ccc(-c2ccc3c(c2)COC2(CCN(C4CCC4)CC2)O3)s1` [Example 661] had a melting point of 150 to 152 °C. Also, the Ki in data set [1] was below 200 nM. The inhibition constant (Ki) in data set [2] is below 200 nM.

Consider `COc1ncc(-c2ccc3c(c2)COC2(CCN(C4CCC4)CC2)O3)c(OC)n1` [Example 662], for which the melting point is 250 °C (dec.). Also, the Ki in data set [1] is below 200 nM. Further, the Ki in data set [2] was below 200 nM.

Compound `O=c1cc(COc2ccc3c(c2)CCC2(CCN(C4CCC4)CC2)O3)cc[nH]1` [Example 663] returned a melting point of 205 to 206 °C. The Ki in data set [1] is below 200 nM. Also, the Ki in data set [2] is below 200 nM.

Take `OC(c1ccc2c(c1)COC1(CCN(C3CCC3)CC1)O2)c1nccs1` (stereo not drawn) [Example 664]: the melting point lay within 70 to 72 °C. Moreover, in data set [1], the Ki was below 200 nM. In addition, the inhibitory constant (Ki) in data set [2] was below 200 nM.

For `Cc1cc(C2CCN(c3ccc4c(c3)COC3(CCN(C5CCC5)CC3)O4)CC2)on1` [Example 665], the melting point lay within 135.9 to 137.2 °C. Further, in data set [1], the Ki was below 200 nM. Further, the Ki in data set [2] was below 200 nM.

For the compound `O=c1[nH]ccc(-c2ccc3c(c2)COC2(CCN(C4CCC4)CC2)O3)c1Cl` [Example 666], the melting point fell in the range of 230 to 232 °C. Besides, the Ki in data set [1] was below 200 nM. Further, the inhibitory constant (Ki) in data set [2] was below 200 nM.

Turning to `O=c1cc(-c2ccc3c(c2)COC2(CCN(C4CCC4)CC2)O3)c(Cl)c[nH]1` [Example 667], the melting point fell in the range of 130 to 132 °C. Further, the Ki in data set [1] was below 200 nM. Moreover, the inhibitory constant (Ki) in data set [2] was below 200 nM.

The compound `O=C(O)c1ccc(-c2ccc3c(c2)COC2(CCN(C4CCC4)CC2)O3)cc1` [Example 668] gave a melting point of 236 to 237 °C. In data set [1], the Ki is below 200 nM. In addition, in data set [2], the inhibition constant Ki is below 200 nM.

`OC(c1ccc2c(c1)COC1(CCN(C3CCC3)CC1)O2)c1cncs1` (stereo not drawn) [Example 669] showed a melting point of 72 to 75 °C. Besides, in data set [1], the Ki was below 200 nM. Besides, the Ki in data set [2] was below 200 nM.

For `CN(C)C(=O)c1cccc(COc2ccc3c(c2)CCC2(CCN(C4CCC4)CC2)O3)n1` [Example 670], the melting point is 167 to 170 °C. For the same compound, the Ki in data set [1] was below 200 nM. The Ki in data set [2] is below 200 nM.

`c1cc2c(cc1OCc1nnc(C3CC3)o1)CCC1(CCN(C3CCC3)CC1)O2` [Example 671] displayed a melting point of 158 to 159 °C. Further, in data set [1], the Ki is below 200 nM. Besides, the Ki in data set [2] is below 200 nM.

`COCc1noc(COc2ccc3c(c2)CCC2(CCN(C4CCC4)CC2)O3)n1` [Example 672]: the melting point fell in the range of 178 to 179 °C. Besides, in data set [1], the inhibition constant Ki is below 200 nM. Further, the Ki in data set [2] is below 200 nM.

`Cc1nnc(CCc2ccc3c(c2)COC2(CCN(C4CCC4)CC2)O3)o1` [Example 673] registered a melting point of 87 to 89 °C. In addition, in data set [1], the Ki was below 200 nM. In addition, the Ki in data set [2] was below 200 nM.

Turning to `CN(C)C(=O)c1ccc(COc2ccc3c(c2)CCC2(CCN(C4CCC4)CC2)O3)nc1` [Example 674], the melting point lay in the range of 75 to 78 °C. The Ki in data set [1] was below 200 nM. The inhibition constant (Ki) in data set [2] was below 200 nM.

The compound `c1nnc(CCc2ccc3c(c2)COC2(CCN(C4CCC4)CC2)O3)o1` [Example 675] yielded a melting point of 83 to 85 °C. Moreover, the Ki in data set [1] is below 200 nM. The Ki in data set [2] was below 200 nM.

Regarding `Cc1noc(CCc2ccc3c(c2)COC2(CCN(C4CCC4)CC2)O3)n1` [Example 676], the melting point was 74 to 76 °C. The inhibitory constant (Ki) in data set [1] is below 200 nM. Further, in data set [2], the Ki is below 200 nM.

The compound `C/C=C(\CC)c1ccc2c(c1)COC1(CCN(C3CCC3)CC1)O2` [Example 677] returned a melting point of 223.5 to 225.8 °C. Further, in data set [1], the Ki is below 200 nM. Further, the Ki in data set [2] is below 200 nM.

In turn, `CCc1nnc(COc2ccc3c(c2)CCC2(CCN(C4CCC4)CC2)O3)o1` [Example 678] came in with a melting point of 170 to 172 °C. The Ki in data set [1] is below 200 nM. For the same compound, the Ki in data set [2] was below 200 nM.

With `NC(=O)c1ccc(-c2ccc3c(c2)COC2(CCN(C4CCC4)CC2)O3)s1` [Example 679], the melting point was 250 °C (dec.). Also, the Ki in data set [1] was below 200 nM. Besides, the inhibitory constant (Ki) in data set [2] is below 200 nM.

The compound `Cn1cc(-c2ccc3c(c2)COC2(CCN(C4CCC4)CC2)O3)cnc1=O` [Example 680] gave a melting point of 230 to 231 °C. The Ki in data set [1] was below 200 nM. The Ki in data set [2] is below 200 nM.

`CNC(=O)c1ccc(-c2ccc3c(c2)COC2(CCN(C4CCC4)CC2)O3)c(C)c1` [Example 681] registered a melting point of 210 to 211 °C. For the same compound, in data set [1], the inhibition constant Ki is below 200 nM. Further, in data set [2], the inhibition constant (Ki) was below 200 nM.

In the case of `CNC(=O)c1ccc(-c2ccc3c(c2)COC2(CCN(C4CCC4)CC2)O3)c(OC)c1` [Example 682], the melting point is 87 to 90 °C. The Ki in data set [1] is below 200 nM. Further, the inhibition constant Ki in data set [2] is below 200 nM.

The compound `OC(c1ccncc1)c1ccc2c(c1)COC1(CCN(C3CCC3)CC1)O2` (stereo not drawn) [Example 683] came in with a melting point of 69 to 72 °C. In data set [1], the Ki is below 200 nM. Further, the Ki in data set [2] is below 200 nM.

Compound `CNC(=O)c1ccc(-c2ccc3c(c2)COC2(CCN(C4CCC4)CC2)O3)c(Cl)c1` [Example 685] gave a melting point of 211 to 213 °C. Also, the Ki in data set [1] was below 200 nM. The Ki in data set [2] was below 200 nM.

`O=C(NC1CCOCC1)c1ccc(-c2ccc3c(c2)COC2(CCN(C4CCC4)CC2)O3)c(Cl)c1` [Example 686] displayed a melting point of 170 to 173 °C. For the same compound, in data set [1], the Ki is below 200 nM. Further, in data set [2], the Ki was below 200 nM.

Turning to `Cc1cc(C(=O)NC2CCOCC2)ccc1-c1ccc2c(c1)COC1(CCN(C3CCC3)CC1)O2` [Example 687], the melting point fell in the range of 184 to 185 °C. Also, in data set [1], the Ki was below 200 nM. The inhibitory constant (Ki) in data set [2] is below 200 nM.

`COc1cc(C(=O)NC2CCOCC2)ccc1-c1ccc2c(c1)COC1(CCN(C3CCC3)CC1)O2` [Example 688] yielded a melting point of 100 to 102 °C. Moreover, the inhibition constant Ki in data set [1] was below 200 nM. In addition, the inhibitory constant (Ki) in data set [2] was below 200 nM.

For the compound `Cc1nnc(C2CC=C(c3ccc4c(c3)COC3(CCN(C5CCC5)CC3)O4)CC2)o1` (stereo not drawn) [Example 689], the melting point is 76.4 to 78.4 °C. For the same compound, the inhibitory constant (Ki) in data set [1] was below 200 nM. In addition, the Ki in data set [2] was below 200 nM.

On to `CC1CN=C(CCc2ccc3c(c2)COC2(CCN(C4CCC4)CC2)O3)O1` (stereo not drawn) [Example 691], for which the melting point lay in the range of 61 to 63 °C. In addition, in data set [1], the inhibition constant (Ki) was below 200 nM. Further, the Ki in data set [2] is below 200 nM.

The compound `OC(c1cncnc1)c1ccc2c(c1)COC1(CCN(C3CCC3)CC1)O2` (stereo not drawn) [Example 692] returned a melting point of 57 to 60 °C. The inhibitory constant (Ki) in data set [1] is below 200 nM. Moreover, the Ki in data set [2] is below 200 nM.

`Cc1cc(C(N)=O)ccc1-c1ccc2c(c1)COC1(CCN(C3CCC3)CC1)O2` [Example 693] showed a melting point of 180 to 182 °C. The Ki in data set [1] is below 200 nM. In addition, in data set [2], the inhibition constant Ki is below 200 nM.

`CCc1nnc(CCc2ccc3c(c2)COC2(CCN(C4CCC4)CC2)O3)o1` [Example 694] came in with a melting point of 98 to 100 °C. Further, the inhibition constant (Ki) in data set [1] is below 200 nM. Besides, the Ki in data set [2] was below 200 nM.

In the case of `CC(C)c1nnc(CCc2ccc3c(c2)COC2(CCN(C4CCC4)CC2)O3)o1` [Example 695], the melting point lay in the range of 101 to 103 °C. Moreover, in data set [1], the inhibitory constant (Ki) is below 200 nM. The Ki in data set [2] is below 200 nM.

The compound `OC(c1ccc2c(c1)COC1(CCN(C3CCC3)CC1)O2)c1cscn1` (stereo not drawn) [Example 697] returned a melting point of 63 to 68 °C. In addition, the Ki in data set [1] is below 200 nM. Also, the inhibitory constant (Ki) in data set [2] is below 200 nM.

`COc1cc(C(=O)O)ccc1-c1ccc2c(c1)COC1(CCN(C3CCC3)CC1)O2` [Example 699] had a melting point of 282 to 284 °C. The Ki in data set [1] was below 200 nM. Moreover, the Ki in data set [2] is below 200 nM.

With `NC(=O)COc1ccc2c(c1)CCC1(CCN(C3CCC3)CC1)O2` [Example 700], the melting point lay within 121 to 125 °C. Moreover, the Ki in data set [1] is below 200 nM. For the same compound, the inhibitory constant (Ki) in data set [2] was below 200 nM.

On to `c1c[nH]c(-c2ccc3c(c2)COC2(CCN(C4CCC4)CC2)O3)c1` [Example 702], for which the melting point fell in the range of 179 to 180 °C. Moreover, the inhibition constant (Ki) in data set [1] is below 200 nM. Besides, the Ki in data set [2] is below 200 nM.

Compound `O=c1ccc(-c2ccc3c(c2)COC2(CCN(CCC4CCOCC4)CC2)O3)c[nH]1` [Example 703] registered a melting point of 214 to 216 °C. For the same compound, the inhibition constant Ki in data set [1] is above 1000 nM. Moreover, the inhibition constant (Ki) in data set [2] was 200 to 1000 nM.

The compound `CNC(=O)c1ccc(-c2ccc3c(c2)COC2(CCN(C4CCC4)CC2)O3)cc1O` [Example 704] displayed a melting point of 252 to 254 °C. Moreover, the Ki in data set [1] is below 200 nM. Further, the Ki in data set [2] was below 200 nM.

On to `O=C(NC1CCOCC1)c1ccc(-c2ccc3c(c2)COC2(CCN(C4CCC4)CC2)O3)cc1O` [Example 705], for which the melting point was in the range of 193 to 195 °C. Further, the Ki in data set [1] is below 200 nM. In data set [2], the inhibition constant (Ki) is below 200 nM.
